Reference: patent US8008007B2, “S-adenosyl-L-methionine analogs with extended activated groups for transfer by methyltransferases” (RWTH Aachen, priority 2005, dated 2011)

Assays:
Type in all cases: biochemical
M.HhaI-Q82A [1] = biological target: T1, M.HhaI-Q82A (Haemophilus parahaemolyticus, UniProt P05102, Q82A); experiment: Modification of cytosine-C5 in duplex oligodeoxynucleotide III.IV by M.HhaI-Q82A, nucleoside analysis by HPLC/ESI-MS; settings: duplex III.IV 12.5 μM, cofactor 300 μM, enzyme 15 μM, 37° C. over night
T1 construct: made in house
Description: Transfer of the activated ethyl (CH2CH3), propyl (CH2CH2CH3), prop-2-enyl (CH2CHCH2), prop-2-ynyl group (CH2CCH), but-2-ynyl (CH2CCCH3), pent-2-ynyl (CH2CCCH2CH3) or benzyl group (CH2C6H5) from cofactors 3-9 by the DNA adenine-N6 methyltransferase M.TaqI, the DNA cytosine-C5 methyltransferase M.HhaI variant Q82A or the DNA cytosine-N4 methyltransferase M.BcnIB to DNA was first investigated using short duplex oligodeoxynucleotides as substrates. After enzymatic transfer the duplex oligodeoxynucleotides were enzymatically fragmented and the resulting modified nucleosides were analyzed by reversed-phase HPLC coupled with ESI-MS.
Therefore, the codon for Q82 was changed to a codon for alanine by standard Kunkel mutagenesis (Kunkel et al., […] Proc. Natl. Acad. Sci. USA 82, 488-492) and the correct DNA sequence of the complete gene was verified by DNA sequencing. Expression and purification of the Q82A variant was performed as described for the wild-type enzyme (Kumar et al., (1992) Biochemistry 31, 8648-8653; Klimasauskas et al., (1998) EMBO J. 17, 317-324). The presence of the amino acid substitution was verified by mass spectrometric analysis of purified M.HhaI-Q82A.
The duplex oligodeoxynucleotide III.IV was produced by mixing equal molar amounts (2.5 nmol) of complementary single-stranded oligodeoxynucleotide III (5′-[…]-3′) (SEQ ID NO. 3) and IV (5′-[…]-3′) (SEQ ID NO. 4) in water, heating at 85° C. for 5 min and slow cooling to room temperature. […] M.HhaI-Q82A was denatured by heating to 80° C. for 10 min and incubation with Proteinase K at 55° C. for 1 h. Hydrolysis products were removed by gel filtration (G-25 column, Amersham Biosciences).
The obtained solutions of duplex oligodeoxynucleotides were treated with buffer ( 1/10 volume, 100 mM Tris hydrochloride, 100 mM magnesium chloride, 10 mM zinc acetate, pH 7.5) containing Nuclease P1 (1500 u, Sigma) and calf intestine alkaline phosphatase (30 u, MBI Fermentas) and incubated at 37° C. for 4 h. Nucleosides were analyzed by reversed-phase HPLC (Discovery C18 150×2.1 mm, 5 μm, equipped with a Supelguard Discovery C18 20×2.1 mm, 5 μm, pre-column, Supelco, Germany) coupled with a mass spectrometric detector (HP 1100 series ESI-MS equipped with single quadruple). Compounds were eluted with methanol (0% for 6 min, followed by linear gradients to 56% in 15 min and to 80% in 1 min) in ammonium formate buffer (20 mM, pH 4.25 for cofactors 3, 4, 6 and pH 3.5 for cofactors 5, 7, 8) at a flow of 0.3 mL/min and detected at 280 nm. For on-line mass spectrometric detection post-column mobile phase modification (equal co-flow of 96% methanol, 4% formic acid and 1 mM sodium hydroxide) was used to enhance the detection efficiency of 2′-deoxycytidine and its derivatives. Mass spectra were recorded in 50-600 m/z range.

M.HhaI-Q82A [2] = biological target: T1, M.HhaI-Q82A; experiment: DNA protection assay with M.HhaI variant Q82A on phage lambda DNA; settings: 1.16 μg phage lambda DNA, cofactor 300 μM, 37° C. for 4 h, then R.Hin6I; pH 7.4 (pH 6.0 for cofactor 6)
Description: (§1) Transfer kinetics of the activated ethyl (—CH2CH3), propyl (—CH2CH2CH3), prop-2-enyl (—CH2CH═CH2), prop-2-ynyl (—CH2C≡CH), but-2-ynyl (—CH2C≡CCH3), pent-2-ynyl (—CH2C≡CCH2CH3) and benzyl group (—CH2C6H5) from cofactors 3-9 by the DNA adenine-N6 methyltransferase M.TaqI and its variant V21 G, the DNA cytosine-C5 methyltransferase M.HhaI and its variant Q82A, the DNA cytosine-N4 methyltransferase M.BcnIB and the DNA cytosine-C5 methyltransferase M.SssI variant Q142A to phage lambda DNA (48502 base pairs) were investigated using a DNA protection assay. This assay makes use of the fact that DNA methyltransferase-catalyzed modifications of nucleobases within the recognition sequences of restriction endonucleases can protect the DNA against fragmentation by these enzymes. […] Unmodified DNA containing 5′-TCGA-3′ recognition sequences is readily fragmentated by R.TaqI. After DNA modification by M.TaqI in the presence of a cofactor with an activated group Z—R modified 5′-TCGA^Z—R-3′ sequences are formed and, as a result, R.TaqI is unable to fragment the modified DNA. Occurrence of fragmentation is then analyzed by agarose gel electrophoresis.
(§2) By varying the amounts of DNA methyltransferase, this assay is used to investigate the enzymatic activities of the different DNA methyltransferases with cofactors 3-9 and compare them to the enzymatic activities with the natural cofactor 1. The minimal amount of DNA methyltransferase needed to fully protect 1 μg of phage lambda DNA against restriction endonuclease fragmentation under the given experimental conditions is defined as one enzyme unit (u).
(§3) Afterwards, the reactions were stopped by heating to 80° C. for 10 min. […] Parallel control experiments were performed with phage lambda DNA in the absence of M.HhaI and in the presence of M.HhaI (278 ng).
The DNA protection assay with the M.HhaI variant Q82A (see Example 2B) was performed as described for the wild type enzyme (Example 3B.1).

M.TaqI = biological target: T2, M.TaqI (Thermus aquaticus, UniProt P14385); experiment: DNA protection assay with M.TaqI (wild-type) on phage lambda DNA; settings: cofactor 300 μM, then R.TaqI
T2 construct: made in house
Description: as §1, §2
Afterwards a solution (30 μL) containing R.TaqI restriction endonuclease (40 u, MBI Fermentas), bovine serum albumin (0.166 mg/mL) and buffer (16.6 mM Tris hydrochloride, 166 mM sodium chloride, 8.3 mM magnesium chloride, pH 8.0) was added to each dilution and incubation at 60-65° C. was continued for 15 min. Loading buffer (10 μL, 0.25% bromphenol blue, 30% glycerol) was added to each sample, and aliquots (12 μL) were analyzed for the degree of protection by agarose gel (1%) electrophoresis. Parallel control experiments were performed with phage lambda DNA in the absence of M.TaqI and in the presence of M.TaqI (200 ng).
Afterwards a solution (10 μL) containing R.TaqI restriction endonuclease (10 u, MBI Fermentas), bovine serum albumin (0.1 mg/mL) and buffer (33 mM Tris acetate, 66 mM potassium acetate, 10 mM magnesium acetate, pH 7.9) was added to each dilution and incubation was continued at 65° C. for 1 h. […] Parallel control experiments were performed with phage lambda DNA in the absence of M.TaqI and in the presence of M.TaqI (180 ng).

M.HhaI = biological target: T3, M.HhaI (Haemophilus parahaemolyticus, UniProt P05102); experiment: DNA protection assay with M.HhaI (wild-type) on phage lambda DNA; settings: 1.16 μg phage lambda DNA, cofactor 300 μM, 37° C. for 4 h, then R.Hin6I; pH 7.4 (pH 6.0 for cofactor 6)
T3 construct: made in house
Description: as §1, §2, §3

[3] = 1 μg phage lambda DNA, 60° C. for 4 h, 1 u = minimal enzyme amount fully protecting 1 μg DNA

T2 sequence (P14385 whole entry): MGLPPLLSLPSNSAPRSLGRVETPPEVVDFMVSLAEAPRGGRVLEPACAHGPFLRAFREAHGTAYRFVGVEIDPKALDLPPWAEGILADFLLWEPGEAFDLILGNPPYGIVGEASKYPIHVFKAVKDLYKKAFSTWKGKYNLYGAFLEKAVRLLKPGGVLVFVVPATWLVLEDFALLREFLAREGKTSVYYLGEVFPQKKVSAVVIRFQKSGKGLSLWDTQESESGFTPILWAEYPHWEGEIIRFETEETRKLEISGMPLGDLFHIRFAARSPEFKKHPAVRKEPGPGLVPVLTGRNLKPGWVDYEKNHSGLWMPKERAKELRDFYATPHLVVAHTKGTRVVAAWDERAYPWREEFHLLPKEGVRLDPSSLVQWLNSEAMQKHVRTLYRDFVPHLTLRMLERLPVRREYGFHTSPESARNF
T3 sequence (P05102 whole entry): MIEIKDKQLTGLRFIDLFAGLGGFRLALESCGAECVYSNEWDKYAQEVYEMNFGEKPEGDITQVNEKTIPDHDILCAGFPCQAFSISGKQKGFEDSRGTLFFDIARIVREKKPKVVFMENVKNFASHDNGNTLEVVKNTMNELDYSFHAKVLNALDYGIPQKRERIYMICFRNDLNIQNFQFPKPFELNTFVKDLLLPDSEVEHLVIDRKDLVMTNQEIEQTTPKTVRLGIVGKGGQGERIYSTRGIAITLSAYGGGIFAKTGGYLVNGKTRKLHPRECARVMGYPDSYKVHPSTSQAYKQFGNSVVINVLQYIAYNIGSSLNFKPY
T1 sequence (P05102 whole entry Q82A): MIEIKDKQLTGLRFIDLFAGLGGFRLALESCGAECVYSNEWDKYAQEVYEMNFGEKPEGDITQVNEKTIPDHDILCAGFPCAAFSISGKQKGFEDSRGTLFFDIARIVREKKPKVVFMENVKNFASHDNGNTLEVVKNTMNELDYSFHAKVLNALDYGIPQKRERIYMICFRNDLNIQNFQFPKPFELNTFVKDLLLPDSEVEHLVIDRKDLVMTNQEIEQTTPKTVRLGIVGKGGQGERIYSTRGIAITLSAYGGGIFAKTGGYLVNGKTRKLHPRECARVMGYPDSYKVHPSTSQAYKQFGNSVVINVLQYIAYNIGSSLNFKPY

SMILES | cofactor function for M.HhaI-Q82A (transfer of group Z-R to cytosine-C5) (M.HhaI-Q82A [1]) | specific activity of M.HhaI-Q82A with the cofactor (M.HhaI-Q82A [2]) [u/μg] | specific activity of M.TaqI with the cofactor (M.TaqI; [3]) [u/μg] | specific activity of M.HhaI with the cofactor (M.HhaI) [u/μg] | specific activity of M.TaqI with the cofactor (M.TaqI; 1.03 μg phage lambda DNA, 60° C. for 1 h only (multiply by four to compare with 4 h values)) [u/μg]
CC#CC[S+](CCC(N)C(=O)O)CC1OC(n2cnc3c(N)ncnc32)C(O)C1O (mixture of isomers) [Cofactor 7] | functions as a cofactor | 58 | 1280 | 29 | –
CC[S+](CCC(N)C(=O)O)CC1OC(n2cnc3c(N)ncnc32)C(O)C1O (centres unmarked) [Cofactor 3] | functions as a cofactor | 7 | 10 | – | –
CCC[S+](CCC(N)C(=O)O)CC1OC(n2cnc3c(N)ncnc32)C(O)C1O (centres unmarked) [Cofactor 4] | does not function as a cofactor | 0 | < 5 | 0 | –
C=CC[S+](CCC(N)C(=O)O)CC1OC(n2cnc3c(N)ncnc32)C(O)C1O (centres unmarked) [Cofactor 5] | functions as a cofactor | 29 | 80 | 7 | –
C#CC[S+](CCC(N)C(=O)O)CC1OC(n2cnc3c(N)ncnc32)C(O)C1O (centres unmarked) [Cofactor 6] | functions as a cofactor | – | 10 | – | –
CCC#CC[S+](CCC(N)C(=O)O)CC1OC(n2cnc3c(N)ncnc32)C(O)C1O (centres unmarked) [Cofactor 8] | functions as a cofactor | – | 640 | – | –
NCCCC(=O)NCC#CC[S+](CCC(N)C(=O)O)CC1OC(n2cnc3c(N)ncnc32)C(O)C1O (centres unmarked) [Cofactor 10] | – | – | – | – | 11
